The nature of data set [1]: Chemical stability assessed as compound decomposition in double distilled water at 40 ug/ml at pH 7.4 after 24 hrs by HPLC analysis. The format is physicochemical. The settings on record: buffer, pH 7.4, 24 h.
The subject of data set [2] is Escherichia coli. Put plainly: Antibacterial activity against Escherichia coli K-12 BW25113 measured every 10 mins after 24 hrs in presence of biotin. The format is functional.
Data set [3] concerns Escherichia coli. Description: Inhibition of Escherichia coli His-tagged bioA at 1 uM using KAPA as substrate after 20 mins in presence of SAM relative to control.
For data set [4], the system named is Escherichia coli. Description: Antibacterial activity against Escherichia coli K-12 BW25113 measured every 10 mins after 24 hrs in absence of biotin. The format is functional.

Each structure is given as a SMILES string. Converted amounts (≈) assume the structure as drawn.

This note sets out measurements from ChEMBL document CHEMBL3867459, “A cell-based approach to characterize antimicrobial compounds through kinetic dose response” (Bioorg Med Chem, 2016).

In the case of `O=C1C=CC(=O)N1Cc1cccs1`, the Stability result in data set [1] is recorded as “Unstable”.
For `Cc1ccccc1SCC(=O)NN`, the MIC in data set [2] is greater than 256 µg/mL; in data set [4], 16 µg/mL (≈ 81.5 µM). The inhibition in data set [3] is 81%.
Consider `NNC(=O)CSc1ccccc1Cl`, for which the results for the MIC in data set [2] and in data set [4] were greater than 256 µg/mL and 16 µg/mL (≈ 73.8 µM), respectively. Moreover, the inhibition in data set [3] is 63%.
`O=[N+]([O-])/C=C/c1cccc(F)c1`: the Stability entry in data set [1] is recorded as “Unstable”.
Take `CSCC(=O)NN`: the results for the MIC in data set [2] and in data set [4] were 64 µg/mL and 64 µg/mL (≈ 533 µM), respectively. The inhibition in data set [3] is 50%.
Turning to `NNC(=O)CSc1ccccc1[N+](=O)[O-]`, the values for the MIC in data set [2] and in data set [4] were greater than 256 µg/mL and 8 µg/mL (≈ 35.2 µM), respectively. Moreover, the inhibition in data set [3] was 100%.
With `CC(=O)NN`, the MIC in data set [2] is 128 µg/mL; in data set [4], 128 µg/mL (≈ 1730 µM). Also, the inhibition in data set [3] came to 7%.
In the case of `NNC(=O)CS`, the MIC in data set [2] was found to be 256 µg/mL; in data set [4], 256 µg/mL (≈ 2410 µM). Further, the inhibition in data set [3] was 20%.
On to `S=C1SCN(Cc2cccnc2)CN1Cc1cccnc1`, for which the Stability entry in data set [1] is “Unstable”.

Usually MIC stands for the lowest concentration found to suppress growth. Usually inhibition stands for the share of the control response that was lost under treatment.
